We go through ten compounds from ChEMBL document CHEMBL1151886, “Synthesis and SAR of hydroxyethylamine based phenylcarboxyamides as inhibitors of BACE” (Bioorg Med Chem Lett, 2009).

Assay [1] addresses T1, Beta-secretase 1 (Homo sapiens, UniProt P56817). The assay can be described thus: Inhibition of BACE1 in human HEK293 cells overexpressing APP with Swedish mutation assessed as inhibition of amyloid beta 40 production. It is filed as cell-based. Particulars: read-out: IC50.
The target in assay [2] is T1, Beta-secretase 1. As to the kind of experiment: Binding affinity to BACE assessed as displacement of [3H]BMS-599240. The conditions noted are these: read-out: IC50.

For orientation: IC50 means the concentration needed to halve the response being measured.

T1 sequence (P56817 whole entry): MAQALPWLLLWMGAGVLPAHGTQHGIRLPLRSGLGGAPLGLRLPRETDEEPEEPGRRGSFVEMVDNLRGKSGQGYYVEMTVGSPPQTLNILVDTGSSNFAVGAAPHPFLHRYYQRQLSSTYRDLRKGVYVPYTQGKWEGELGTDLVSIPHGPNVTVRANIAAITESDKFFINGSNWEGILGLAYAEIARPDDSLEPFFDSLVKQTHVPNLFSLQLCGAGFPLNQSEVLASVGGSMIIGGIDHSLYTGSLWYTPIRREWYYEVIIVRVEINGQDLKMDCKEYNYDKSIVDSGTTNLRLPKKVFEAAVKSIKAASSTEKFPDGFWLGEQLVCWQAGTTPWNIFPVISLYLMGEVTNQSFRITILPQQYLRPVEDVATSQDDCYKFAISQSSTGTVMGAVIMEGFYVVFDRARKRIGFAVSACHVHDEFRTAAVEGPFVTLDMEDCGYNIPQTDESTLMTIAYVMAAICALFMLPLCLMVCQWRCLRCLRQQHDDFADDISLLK

As for `COc1cccc(CNC[C@@H](O)[C@H](Cc2cc(F)cc(F)c2)NC(=O)c2cc(/C(C)=N\O)cc(N(c3ccccc3)S(C)(=O)=O)c2)c1`, the IC50 at Beta-secretase 1 [1] stood at 91 nM; at Beta-secretase 1 [2] it was 9 nM.
Take `COc1cccc(CNC[C@@H](O)[C@H](Cc2cc(F)cc(F)c2)NC(=O)c2cc(/C(C)=N\O)cc(N3CCCCS3(=O)=O)c2)c1`: the IC50 at Beta-secretase 1 [1] amounted to 117 nM; on Beta-secretase 1 [2], 38 nM.
`C=CCO/N=C(/C)c1cc(C(=O)NC(C)c2ccc(F)cc2)cc(C(=O)N[C@@H](Cc2cc(F)cc(F)c2)[C@H](O)CNCc2cccc(OC)c2)c1` (stereo not given in full): the IC50 is 530 nM on Beta-secretase 1 [1] and 168 nM at Beta-secretase 1 [2].
For `CO/N=C(/C)c1cc(C(=O)N[C@@H](Cc2cc(F)cc(F)c2)[C@H](O)CNCc2cccc(OC)c2)cc(N2CCCCS2(=O)=O)c1`, in that order: 345 nM and 52 nM.
For `CCCN(CCC)C(=O)c1cc(C(=O)N[C@@H](Cc2cc(F)cc(F)c2)[C@H](O)CNCc2cccc(OC)c2)cc(/C(C)=N\OCC(C)C)c1`, in that order: 367 nM and 55 nM.
For the compound `CCCN(CCC)C(=O)c1cc(C(C)=O)cc(C(=O)N[C@@H](Cc2cc(F)cc(F)c2)[C@H](O)CNCc2cccc(OC)c2)c1`, the IC50 on Beta-secretase 1 [1] is 19 nM; on Beta-secretase 1 [2], 4 nM.
For `COc1cccc(CNC[C@@H](O)[C@H](Cc2cc(F)cc(F)c2)NC(=O)c2cc(C(C)=O)cc(C(=O)N[C@H](C)c3ccccc3)c2)c1` the same measures were 73 nM and 20 nM.
Take `CCCN(CCC)C(=O)c1cc(Oc2ccc(F)cc2)cc(C(=O)N[C@@H](Cc2cc(F)cc(F)c2)[C@H](O)CNCc2cccc(OC)c2)c1`: the half-inhibitory concentration (IC50) at Beta-secretase 1 [1] worked out at 94 nM; at Beta-secretase 1 [2], 22 nM.
For the compound `CCCO/N=C(/C)c1cc(C(=O)N[C@@H](Cc2cc(F)cc(F)c2)[C@H](O)CNCc2cccc(OC)c2)cc(N(C)S(C)(=O)=O)c1`, the IC50 on Beta-secretase 1 [1] is 217 nM; at Beta-secretase 1 [2] it was 59 nM.
With `CCCN(CCC)C(=O)c1cc(C(=O)N[C@@H](Cc2cc(F)cc(F)c2)[C@H](O)CNCc2cccc(OC)c2)cc(S(=O)(=O)c2ccc(OC)cc2)c1`, the IC50 at Beta-secretase 1 [1] was found to be 392 nM; on Beta-secretase 1 [2], 12 nM.
